The results in this text go back to ChEMBL document CHEMBL1153070, “Urea and carbamate derivatives of primaquine: synthesis, cytostatic and antioxidant activities” (Bioorg Med Chem, 2009).

The test system of experiment [1] is Radical scavenging activity. The experiment is described as follows: Antioxidant activity assessed as DPPH radical scavenging activity at 0.1 mM after 20 mins. The format is functional.
Experiment [2] can be described thus: Antioxidant activity assessed as inhibition of AAPH-induced lipid peroxidation at 0.1 mM. The format is functional.
The test system of another experiment is MOLT-4. The experiment is described as follows: Cytostatic activity against human MOLT4 cells. The class given is functional, cell-based.
The next experiment concerns NCI-H460. Description: Cytostatic activity against human H460 cells. The format is functional, cell-based.
For the next experiment, the system named is HCT-116. Description: Cytostatic activity against human HCT116 cells. The class given is functional, cell-based.
Experiment [3] concerns Radical scavenging activity. The experiment is described as follows: Antioxidant activity assessed as DPPH radical scavenging activity at 0.1 mM after 60 mins. The format is functional.
The test system of experiment [4] is Radical scavenging activity. Description: Antioxidant activity assessed as DPPH radical scavenging activity. The class given is functional. (Loss of DPPH colour is used to gauge radical scavenging.)
The next experiment has as its system Glycine max. Description: Inhibition of soybean lipoxygenase.
The subject of the next experiment is SW-620. Description: Cytostatic activity against human SW620 cells. The class given is functional, cell-based.
Experiment [5] deals with MCF7. The experiment is described as follows: Cytostatic activity against human MCF7 cells. The class given is functional, cell-based.
For experiment [6], the system named is Radical scavenging activity. The experiment is described as follows: Antioxidant activity assessed as DPPH radical scavenging activity at 0.05 mM after 20 mins. The class given is functional.
Experiment [7] has as its system Radical scavenging activity. Description: Antioxidant activity assessed as DPPH radical scavenging activity at 0.05 mM after 60 mins. The format is functional.
For experiment [8], the system named is MCF7. Description: Antiproliferative activity against human MCF7 cells at 100 uM after 24 hrs. The format is functional. Particulars: MCF7, 24 h.

Active and inactive are the calls of the source. No cut-off for these calls is given here. A value given as a limit tells only on which side of the number the result lay.

For `COc1cc(NC(C)CCCNC(=O)NCCNC(=O)NCCCC(C)Nc2cc(OC)cc3cccnc23)c2ncccc2c1` (stereo not given), the Activity is 35.7% in [1]; 40.5% in [3]; “Dose-dependent effect” in experiment [4]; 34.2% in experiment [6]; 27.6% in experiment [7]. The Inhibition in experiment [2] came to 99%. For the same compound, the IC50 with MOLT-4 came out at 10 µM; in the experiment with NCI-H460, 18 µM; in the experiment with HCT-116, 15 µM; in the experiment with SW-620, 17 µM; with MCF7 [5], 31 µM. The same compound displayed an INH in the experiment with Glycine max of 62 µM.

For `Cc1c(C)c2c(c(C)c1O)CCC(C)(C(=O)O)O2` (stereo not given) [TROLOX], the Inhibition in experiment [2] was found to be 63%.

Regarding `COc1cc(NC(C)CCCNC(=O)NCCO)c2ncccc2c1` (stereo not given), the Activity was 60.7% in experiment [1]; 51.2% in experiment [3]; “Dose-dependent effect” in experiment [4]; 3.7% in experiment [6]; 10.6% in [7]. Besides, in experiment [2], the Inhibition came to 81%. Also, the IC50 in the experiment with MOLT-4 was greater than 100 µM; in the experiment with NCI-H460, greater than 100 µM; with HCT-116, greater than 100 µM; in the experiment with SW-620 it was greater than 100 µM; in the experiment on MCF7 [5], 25 µM. For the same compound, the INH in the experiment with Glycine max is 315 µM.

Take `COc1cc(NC(C)CCCNC(=O)n2nnc3ccccc32)c2ncccc2c1` (stereo not given) [PRIMAQUINE BENZOTRIAZOLIDE]: the Activity in [1] was 16.7%; in [3] it was 73.8%; in experiment [4], “Dose-dependent effect”; in [6], 18.4%; in experiment [7], 20%. In experiment [2], the IC50 entry was “Not Active”. For the same compound, in the experiment on Glycine max, the INH amounted to 260 µM.

As for `NC(=O)NO` [HYDROXYUREA], the IC50 in the experiment with MOLT-4 is greater than 100 µM; in the experiment with NCI-H460, greater than 100 µM; in the experiment with HCT-116, 223 µM; in the experiment on SW-620, greater than 100 µM; in the experiment with MCF7 [5], greater than 100 µM.

On to `CC(Cc1ccc(O)c(O)c1)C(C)Cc1ccc(O)c(O)c1` (stereo not given), for which the Activity in experiment [1] worked out at 81%; in experiment [3] it was 83%.

Regarding `COc1cc(NC(C)CCCNC(=O)NO)c2ncccc2c1` (stereo not given), the Activity in [1] was 88.1%; in experiment [3], 84.5%; in [4], “Dose-dependent effect”; in [6] it was 2.2%; in experiment [7] it was 60.6%. Also, in experiment [2], the Inhibition is 69%. Further, the IC50 with MOLT-4 is greater than 100 µM; in the experiment on NCI-H460, greater than 100 µM; with HCT-116, 57 µM; in the experiment on SW-620, 35 µM; in the experiment on MCF7 [5], 44 µM. In the experiment on Glycine max, this compound showed an INH of 83 µM.

For `COc1cc(NC(C)CCCNC(=O)NC2CCCC2)c2ncccc2c1` (stereo not given), the Activity in experiment [1] was 26.2%; in [3], 19%; in experiment [4], “Dose-dependent effect”; in experiment [6], 15.8%; in [7], 21.3%. Besides, the Inhibition in experiment [2] amounted to 99%. Besides, the INH with Glycine max turned out to be 220 µM.

On to `COc1cc(NC(C)CCCNC(=O)NC2CCCCC2)c2ncccc2c1` (stereo not given), for which the Activity is 27.4% in experiment [1]; 25% in [3]; “Dose-dependent effect” in experiment [4]; 28.9% in experiment [6]; 16.3% in experiment [7]. For the same compound, the Inhibition in experiment [2] was 99%. Moreover, the inhibition result in the experiment on Glycine max was “inactive”.

As to `COc1cc(NC(C)CCCNC(=O)NOCc2ccccc2)c2ncccc2c1` (stereo not given), the values for the Activity in experiment [1], in experiment [3] and in [4] were 11.4%, 38.1% and “Dose-dependent effect”, respectively. In addition, in [2], the Inhibition is given as 82%. Also, the IC50 with MOLT-4 came to 12 µM; in the experiment on NCI-H460, 21 µM; with HCT-116, 14 µM; in the experiment on SW-620 it was 20 µM; with MCF7 [5], 9 µM. The compound further came in with an INH with Glycine max of 230 µM. Also, the result in [6] and in experiment [7] was inactive.

With `COc1cc(NC(C)CCCNC(=O)NCCCO)c2ncccc2c1` (stereo not given), the Activity in experiment [1] was 28.6%; in experiment [3], 33.3%; in experiment [4], “Dose-dependent effect”; in experiment [6], 12.2%; in experiment [7], 27.7%. The Inhibition in experiment [2] was 56%. Also, the IC50 is greater than 100 µM in the experiment with MOLT-4; greater than 100 µM in the experiment with NCI-H460; greater than 100 µM with HCT-116; greater than 100 µM with SW-620; 31 µM in the experiment on MCF7 [5]. In the experiment with Glycine max, this compound showed an INH of 230 µM.

The compound `O=C(O)/C=C/c1ccc(O)c(O)c1` returned an INH in the experiment on Glycine max of 600 µM.

Turning to `COc1cc(NC(C)CCCN)c2ncccc2c1` (stereo not given) [PRIMAQUINE], the Activity was 18.1% in [1], 21.9% in experiment [3], 17.2% in experiment [6] and 19% in experiment [7]. The Inhibition in [2] turned out to be 45%. The IC50 with NCI-H460 was 30 µM; in the experiment with HCT-116 it was 20 µM; with SW-620, no less than 100 µM; in the experiment with MCF7 [5] it was 28 µM. Moreover, in the experiment with MCF7 [8], the inhibition at 100 µM turned out to be 20%. Moreover, the INH in the experiment with Glycine max was found to be 74 µM.

Take `COC(=O)NCCCC(C)Nc1cc(OC)cc2cccnc12` (stereo not given): the Activity in experiment [1] is 75%; in experiment [3] it was 48.8%; in [4], “Dose-dependent effect”; in [6] it was 24.4%; in experiment [7], 13.8%. Further, the Inhibition in experiment [2] is reported as 83%. Besides, the IC50 in the experiment on MOLT-4, in the experiment on NCI-H460, in the experiment on HCT-116, in the experiment on SW-620 and in the experiment with MCF7 [5] was greater than 100 µM throughout. The inhibition entry in the experiment on Glycine max is “inactive”.

With `COc1cc(NC(C)CCCNC(=O)NCCCCCO)c2ncccc2c1` (stereo not given), the Activity in [1] is 34.5%; in experiment [3], 46.4%; in experiment [4], “Dose-dependent effect”. Also, the Inhibition in experiment [2] stood at 63%. Further, the IC50 in the experiment on MOLT-4 worked out at 61 µM; in the experiment with NCI-H460 it was 2 µM; in the experiment with HCT-116, 29 µM; in the experiment on SW-620, 0.2 µM; in the experiment with MCF7 [5] it was 44 µM. For the same compound, in the experiment with Glycine max, the INH is 310 µM. Also, the outcome in experiment [6] and in experiment [7] was inactive.

`CCOC(=O)NCCCC(C)Nc1cc(OC)cc2cccnc12` (stereo not given): the outcome in experiment [1] was inactive. For the same compound, in [2], the Inhibition worked out at 87%. Further, the IC50 was 34 µM in the experiment with MOLT-4; 38 µM in the experiment on NCI-H460; 28 µM with HCT-116; 45 µM in the experiment on SW-620; 26 µM in the experiment on MCF7 [5]. Moreover, the Activity in experiment [3] was 31%; in experiment [4], “Dose-dependent effect”; in [6], 10.8%; in experiment [7], 8.5%. Besides, in the experiment on Glycine max, the inhibition entry is “inactive”.

As to `COc1cc(NC(C)CCCNC(=O)N(C2CCCCC2)C2CCCCC2)c2ncccc2c1` (stereo not given), the Activity in experiment [1] was 42.9%; in [3], 42.9%; in [4] it was “Dose-dependent effect”; in [6] it was 3.9%; in experiment [7], 28.8%. For the same compound, in experiment [2], the Inhibition was found to be 96%. Besides, the INH with Glycine max is 320 µM.

As for `COc1cc(N2C(=O)NCCCC2C)c2ncccc2c1` (stereo not given), the Activity in experiment [1] was 48.8%; in [3], 57.1%; in experiment [4], “Dose-dependent effect”; in [6] it was 30.5%; in [7] it was 40%. Moreover, in [2], the Inhibition is recorded as 88%. In addition, the IC50 with MOLT-4 is no less than 100 µM; in the experiment on NCI-H460 it was greater than 100 µM; in the experiment with HCT-116, greater than 100 µM; with SW-620, greater than 100 µM; in the experiment on MCF7 [5], greater than 100 µM. The same compound yielded an INH in the experiment with Glycine max of 72 µM.

For `COc1cc(NC(C)CCCNC(=O)NC(CO)(CO)CO)c2ncccc2c1` (stereo not given), the Activity is 28.6% in [1]; 40.5% in [3]; “Dose-dependent effect” in experiment [4]; 24.4% in experiment [6]; 22.3% in [7]. Besides, the Inhibition in experiment [2] worked out at 86%. Further, the IC50 with MOLT-4 is greater than 100 µM; in the experiment on NCI-H460 it was greater than 100 µM; with HCT-116, greater than 100 µM; in the experiment on SW-620, greater than 100 µM; with MCF7 [5], 24 µM. The inhibition entry in the experiment with Glycine max was “inactive”.

With `COc1cc(NC(C)CCCNC(=O)N(CCO)CCO)c2ncccc2c1` (stereo not given), the outcome in [1] was inactive. The Inhibition in [2] is reported as 85%. Further, the IC50 is greater than 100 µM in the experiment with MOLT-4; greater than 100 µM in the experiment on NCI-H460; greater than 100 µM with HCT-116; greater than 100 µM in the experiment on SW-620; 36 µM with MCF7 [5]. In addition, the Activity in [3] was 11.9%; in experiment [4] it was “Dose-dependent effect”; in experiment [6], 20.7%; in [7], 7.4%. The compound further had an INH in the experiment on Glycine max of 86 µM.

For orientation: Inhibition means the drop in the measured response relative to a control, in per cent. Broadly, the IC50 is the point on the concentration scale where inhibition reaches its midpoint. For orientation: inhibition means the change of the read-out against control, counted positive when it falls.
